Measured values reported in BindingDB's records for patent US20250195475 (Inventisbio, 2025).

Biological target: Cyclin-dependent kinase 2/G1/S-specific cyclin-E1 (Homo sapiens, UniProt P24941+P24864)
Assay: TR-FRET Assay
Description: Compound Preparation. Dissslove the compounds into DMSO solution to make 10 mM DMSO stock. Serially dilute the stock solution from highest concentration down to lowest in DMSO to make the compound stock plate (100× stock plates). To make 5× compound intermediate plate, add 38 μL of assay buffer (50 mM HEPES, pH 7.5, 0.05 mg/mL BSA, 10 mM MgCl2, 1 mM EGTA, 0.01% Tween-20, 2 mM DTT) into each well of the V-bottom plate; then transfer 2 μL of the stock compound solution of each concentration from the compound stock plate (100× stock), and mix well. Enzyme reaction. Transfer 2 μL compound from 5× intermediate plate into assay plate, then add 4 μL/well 2.5× Enzyme mix to assay plate, incubation for 10 min at room temperature. For positive control wells, add 4 μL/well assay buffer instead of Enzyme mix. Then add 4 μL/well 2.5× Substrate mix to assay plate, and incubation at 25° C. for 30 min at room temperature. After reaction, 10 μL 2× Detection mix (final 15 mM EDTA, 1× LANCE Detection Buffer, 0.5 nM Detection antibody) was added and incubated for 1 h prior to detection with excitation and emission at 320 and 665 nm (Tecan Spark TR-FRET mode Tecan).

IC50: 0.8 nM
Structure (SMILES): COCc1cc(C(=O)Nc2cc([C@H]3CC[C@@H](OC(=O)N4CCC5(CCC5)C4)C3)[nH]n2)n(C)n1 [US20250195475, Example 6]
